Reference: PMC4048319, “Design and Synthesis of High Affinity Inhibitors of Plasmodium falciparum and Plasmodium vivax N-Myristoyltransferases Directed by Ligand Efficiency Dependent Lipophilicity (LELP)” (Journal of Medicinal Chemistry, 2014)

Columns and labels:
PfNMT [1] = target: T1, PfNMT (Plasmodium falciparum, UniProt Q9U419); assay: LELP (cLogP/LE, PfNMT LE)
T1 sequence (Q9U419 1-410): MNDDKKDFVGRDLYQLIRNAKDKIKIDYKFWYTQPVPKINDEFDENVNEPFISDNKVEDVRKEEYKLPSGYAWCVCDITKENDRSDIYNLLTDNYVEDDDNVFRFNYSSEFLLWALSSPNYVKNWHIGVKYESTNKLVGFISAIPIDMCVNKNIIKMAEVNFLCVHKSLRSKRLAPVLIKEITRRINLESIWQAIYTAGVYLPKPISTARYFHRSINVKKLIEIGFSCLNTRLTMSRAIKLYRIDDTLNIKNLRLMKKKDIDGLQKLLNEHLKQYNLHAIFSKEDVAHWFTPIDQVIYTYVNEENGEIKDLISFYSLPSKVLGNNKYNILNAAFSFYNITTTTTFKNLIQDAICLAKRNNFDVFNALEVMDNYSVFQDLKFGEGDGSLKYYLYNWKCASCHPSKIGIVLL

PfNMT [2] = target: T1, PfNMT; assay: NMT enzyme inhibition, CPM fluorescence assay (PfNMT); format: biochemical
Procedure: (§1) All IC50 determinations were carried out using a 7-diethylamino-3-(4′-maleimidylphenyl)-4-methylcoumarin (CPM) fluorescence assay, as described previously for HsNMT1,[45] PvNMT,[46] and PfNMT.[21]
(§2) IC50 values are the mean value of two or more determinations, and standard deviation is within 20% of the IC50 unless otherwise specified. Data were elaborated using Microsoft Office Excel 2010, and IC50 values were determined using GraFit 7.0 (Erithacus Software Ltd., U.K.) by nonlinear regression fitting, which were then quoted as Ki as defined below.
(§3) The Michaelis constant (Km) was 3.64 μM and the substrate concentration was 4.00 μM, resulting in a Ki of 0.008 μM. Km values were calculated as described previously.[45]

[3] = test system: Plasmodium falciparum 3D7; assay: Plasmodium falciparum Sybr Green viability assay (3D7); format: cell-based; settings: blood stage, Sybr Green fluorometric assay, 96 h, read-out: Pf 3D7 EC50
Procedure: Synchronous Plasmodium falciparum 3D7 late stage trophozoites at 33–36 h were used. […] Red blood cells used for the assay were centrifuged to remove the buffy coat and washed twice in Roswell Park Memorial Institute (RPMI) medium 1640 so that no white blood cells were present. The culture medium contained RPMI 1640 with 5 g/L Albumax, 0.025 g/L gentamycin, and 0.292 g/L L-glutamine. Sterile 96-well black tissue culture plates (Costar) were used routinely for every assay. […] Two sets of control were used in duplicate wells, one set with no added drugs (positive control) and one with uninfected red blood cells (negative control). […] After 48 h supernatants were taken from each well and replaced with fresh drug and incubated for a further 48 h in the same manner. At the end of the 96 h incubation, 25 μL of SYBR Green I dye (SYBR Green I nucleic acid gel stain 10000×, in DMSO from Invitrogen) in lysis buffer (1 μL dye to 1 mL of lysis buffer) was added to each well and stored overnight at −20 °C. […] Plates were warmed to room temperature, and fluorescence intensity was measured with a FLUOstar Omega microplate fluorescence reader (BMG Labtech). Values were expressed in relative fluorescence units. […] Fluorescence intensity unit was converted to percentage (%) of growth as follows: [drawing 2]

PvNMT = target: T2, PvNMT (Plasmodium vivax, UniProt A5K1A2); assay: NMT enzyme inhibition, CPM fluorescence assay (PvNMT); format: biochemical
T2 sequence (A5K1A2 1-410): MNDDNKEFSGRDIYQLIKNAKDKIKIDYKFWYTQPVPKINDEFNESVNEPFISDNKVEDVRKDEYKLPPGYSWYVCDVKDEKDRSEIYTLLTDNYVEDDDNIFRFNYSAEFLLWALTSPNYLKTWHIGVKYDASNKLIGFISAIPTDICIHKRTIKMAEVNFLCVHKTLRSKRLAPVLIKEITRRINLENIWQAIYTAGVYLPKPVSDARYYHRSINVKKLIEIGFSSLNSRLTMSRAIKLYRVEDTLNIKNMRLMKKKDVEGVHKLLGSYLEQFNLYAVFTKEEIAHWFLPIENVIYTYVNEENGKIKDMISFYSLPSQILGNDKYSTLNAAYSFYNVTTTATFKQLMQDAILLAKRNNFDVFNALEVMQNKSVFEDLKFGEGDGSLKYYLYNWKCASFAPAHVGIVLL
Procedure: as §1, §2, §3

Work on `COc1cccc(COC(=O)c2sc3ccccc3c2OC2CCNCC2)c1` [compound 1] yielded an LELP (PfNMT [1]) of 13.5, a Ki (PfNMT [2]) of 832 nM and an EC50 [3] of 2000 nM. For the same compound, the Ki (PvNMT) was 84 nM.
